This is an account of results in article PMC8122671, “New Succinimides with Potent Anticancer Activity: Synthesis, Activation of Stress Signaling Pathways and Characterization of Apoptosis in Leukemia and Cervical Cancer Cells” (International Journal of Molecular Sciences, 2021).

Entries after “also recorded” stand apart in the source; their conditions may differ. Where two headings read alike, the source gives them in different places. A value given as a limit tells only on which side of the number the result lay.

What is called IC50 is the midpoint of a concentration-inhibition curve.

Experiment [1] relates to K562 (myelogenous leukemia cell line). The experiment can be described thus: MTT cytotoxicity assay, K562. In kind it is cell-based, human. The note with it: 48 h incubation, average (SD) of three experiments, read-out: IC50 K562. On the technique in general: Tetrazolium assays rely on reduction of a dye to a coloured formazan, in cell work by metabolically active cells.
The test system of experiment [2] is MOLT-4 (Human T-Lymphoid Cell Line). Kind of experiment: MTT cytotoxicity assay, MOLT-4. In kind it is cell-based. The following applies: MOLT-4, 48 h incubation, average (SD) of three experiments, read-out: IC50 MOLT-4.
Experiment [3] concerns caspase 3/7 in K562 cells. Kind of experiment: Caspase-3/7 activity assay (Apo-ONE) in K562 cells. Type of experiment: cell-based, human. The note with it: K562, 18 h, test compound at 5xIC50, staurosporine 1 μM; vs 1% DMSO. The protocol: After incubation for 18 h, K562 cells were lysed and the activity of caspase 3/7 was measured using a profluorescent peptide substrate.
First, 20 × 10^3 K562 cells were seeded on each well of a 96-well plate in RPMI 1640 medium supplemented with 10% fetal calf serum and antibiotics. Cells were grown for 24 h at 37 °C and 5% CO2. Test dicarboximides were dissolved in DMSO and added to cell culture to the final concentration of 5 × IC50. […] Cells were exposed to test compounds for 18 h at 37 °C and 5% CO2. Subsequently, the activity of caspase 3 and 7 was measured by Apo-ONE® Homogeneous Caspase-3/7 Assay (Promega, Madison, WI, USA) according to the manufacturer’s instructions. Briefly, the cells were lysed and incubated for 1.5 h with a profluorescent substrate for caspase 3 and 7. Next, the fluorescence was read at an excitation wavelength of 485 nm and emission of 520 nm with a FLUOStar Omega microplate reader (BMG-Labtech, Offenburg, Germany).

Experiment [4] relates to plasmid DNA (pcDNA3.1HisC). The experiment can be described thus: DNA-cleavage protection assay (BamHI digestion of plasmid DNA). In kind it is biochemical. The note with it: 100 µM, overnight 37 °C, then BamHI 3 h. The protocol:
A DNA-cleavage protection assay has been successfully used for the identification of compounds that bind DNA either covalently or noncovalently. Such binding may result in DNA being less susceptible to enzymatic cleavage. […] It was also reported that naphtalenoimides or indolomaleimides intercalate into DNA [13, 14]. […] In CD studies, a synthetic 23-nt duplex DNA or bovine thymus DNA was incubated with compound Ic or daunorubicin (reference compound). […] Using a DNA-cleavage protection assay, we investigated whether selected compounds 2c, 2d, and 2f and 3c, 3d, and 3f interact with a plasmid DNA, resulting in increased resistance to endonucleolytic cleavage. Plasmid DNA (pcDNA3.1HisC) containing a single BamHI cleavage site was incubated with test compounds and subsequently digested with BamH1 restriction endonuclease. Daunorubicin (a strong DNA-intercalating agent) was used as a reference compound. Non-digested plasmid DNA existed predominantly in the circular form; however, the superhelical and linear forms were also detected (Figure 5, lane 1). […] This observation can be explained by the higher lipophilicity of 3c, 3d, and 3f compared to 2c, 2d, and 2f, which may facilitate their more efficient binding to DNA.
First, 0.5 μg of plasmid DNA (pcDNAHisC, total length 5.5 kbp) containing a unique BamHI restriction site was dissolved in a 1× BamHI reaction buffer and incubated overnight at 37 °C with the test compounds or daunorubicin. Daunorubicin, a strong intercalating agent, was used as a positive control. The concentration of the test compounds and daunorubicin samples was 100 µM. In the next step, the reaction mixtures were digested with BamHI restriction endonuclease (2 U/μL) for 3 h at 37 °C. The total reaction volume was 10 μL. Products of the reaction were subjected to the 1% agarose gel electrophoresis in TBE buffer. The gel was stained with ethidium bromide, and DNA fragments were visualized under a UV lamp (GBox, Syngene).

In the case of `CCC12C(=O)C(CC)(C(c3ccccc3)=C1c1ccccc1)C1C(=O)N(CC(O)CNC(C)(C)C)C(=O)C12` (stereo not drawn) [2c, 4-[3-(tert-butylamino)-2-hydroxypropyl]-1,7-diethyl-8,9-diphenyl-4-azatricyclo [5.2.1.0^2,6]dec-8-ene-3,5,10-trione], the IC50 was 4 µM in experiment [1]; < 6 µM in experiment [1] (Homo sapiens, K562, 48 h); 2.5 µM in experiment [2]. The “activity of caspase 3/7” value in experiment [3] was “over eight-fold increase in caspase activity; also recorded: activated caspase 3 and 7”. Moreover, in experiment [4], the “protection of plasmid DNA from BamHI digestion (circular DNA left)” value (“protection of plasmid DNA” below) was “the circular form was also detected”.

Regarding `CCN(CC)CC(O)CN1C(=O)C2C(C1=O)C1(CC)C(=O)C2(CC)C(c2ccccc2)=C1c1ccccc1` (stereo not drawn) [2d, 4-[3-(diethylamino)-2-hydroxypropyl]-1,7-diethyl-8,9-diphenyl-4-azatricyclo [5.2.1.0^2,6]dec-8-ene-3,5,10-trione], the IC50 was 5.8 µM in experiment [1]; < 6 µM in experiment [1] (Homo sapiens, K562, 48 h); 14 µM in experiment [2]. In addition, in experiment [3], the “activity of caspase 3/7” value was “over eight-fold increase in caspase activity; also recorded: activated caspase 3 and 7”. Besides, the “protection of plasmid DNA” value in experiment [4] is “the circular form was also detected”.

For `CC(C)(C)NCC(O)CN1C(=O)C2C(C1=O)C1(c3ccccc3)CC2(c2ccccc2)C(c2ccccc2)=C1c1ccccc1` (stereo not drawn) [3c, 4-[3-(tert-butylamino)-2-hydroxypropyl]-1,7,8,9-tetraphenyl-4-azatricyclo[5.2.1.0^2,6]dec-8-ene-3,5-dione], in experiment [2], the IC50 came out at 2.6 µM. In addition, the “activity of caspase 3/7” value in experiment [3] is “activated caspase 3/7 to a lesser extent; also recorded: activated caspase 3 and 7”. Besides, in experiment [4], the “protection of plasmid DNA” value is recorded as “interaction seems to be stronger”.

Turning to `CCN(CC)CC(O)CN1C(=O)C2C(C1=O)C1(c3ccccc3)CC2(c2ccccc2)C(c2ccccc2)=C1c1ccccc1` (stereo not drawn) [3d, 4-[3-(diethylamino)-2-hydroxypropyl]-1,7,8,9-tetraphenyl-4-azatricyclo[5.2.1.0^2,6]dec-8-ene-3,5-dione], the IC50 was 3.2 µM in experiment [1]; < 6 µM in experiment [1] (Homo sapiens, K562, 48 h); 2.2 µM in experiment [2]. Moreover, the “activity of caspase 3/7” value in experiment [3] is “activated caspase 3/7 to a lesser extent; also recorded: activated caspase 3 and 7”. In addition, in experiment [4], the “protection of plasmid DNA” value is recorded as “interaction seems to be stronger”.
